Laboratory results reported in patent US20230150974A1 (Foghorn Therapeutics Inc., priority 2020, published 2023).

Experiments:
HiBiT-BRM = biological target: T1, HiBiT-BRM (Homo sapiens, UniProt P51531); assay: HiBiT-BRM cell-based degradation assay (Nano-Glo HiBiT Lytic Detection); details: HeLa cells expressing HiBiT-BRM, 24 h; for DC50: read-out: BRM HiBit Degradation IC50
T1 construct: expressed in transfected cells
Method in brief: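 Luminescence from HiBiT–LgBiT complementation in lysates of a stable HiBiT-BRM HeLa line measured after 24 h compound exposure. Degradation expressed as percent relative to DMSO-treated cells and cells given 2 μM of a known BRM/BRG1 degrader.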

HiBit-BRG1 = biological target: T2, HiBit-BRG1 (Homo sapiens, UniProt P51532); assay: HiBit-BRG1 cell-based degradation assay (Nano-Glo HiBiT Lytic Detection); details: HeLa cells expressing HiBit-BRG1 and LgBit, 24 h; for DC50: read-out: BRG1 HiBit Degradation IC50; for Dmax: read-out: BRG1 HiBit Degradation Maximum (%)
T2 construct: expressed in transfected cells
Method in brief: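 Luminescence from reconstituted NanoBiT luciferase after lytic detection served as read-out of remaining HiBit-BRG1 in stable HeLa cells, which also express LgBit. Cells were seeded at 5000 per well and incubated with compound for 24 h. DMSO and a 2 μM known degrader defined the control range.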

T2 sequence (P51532 whole entry): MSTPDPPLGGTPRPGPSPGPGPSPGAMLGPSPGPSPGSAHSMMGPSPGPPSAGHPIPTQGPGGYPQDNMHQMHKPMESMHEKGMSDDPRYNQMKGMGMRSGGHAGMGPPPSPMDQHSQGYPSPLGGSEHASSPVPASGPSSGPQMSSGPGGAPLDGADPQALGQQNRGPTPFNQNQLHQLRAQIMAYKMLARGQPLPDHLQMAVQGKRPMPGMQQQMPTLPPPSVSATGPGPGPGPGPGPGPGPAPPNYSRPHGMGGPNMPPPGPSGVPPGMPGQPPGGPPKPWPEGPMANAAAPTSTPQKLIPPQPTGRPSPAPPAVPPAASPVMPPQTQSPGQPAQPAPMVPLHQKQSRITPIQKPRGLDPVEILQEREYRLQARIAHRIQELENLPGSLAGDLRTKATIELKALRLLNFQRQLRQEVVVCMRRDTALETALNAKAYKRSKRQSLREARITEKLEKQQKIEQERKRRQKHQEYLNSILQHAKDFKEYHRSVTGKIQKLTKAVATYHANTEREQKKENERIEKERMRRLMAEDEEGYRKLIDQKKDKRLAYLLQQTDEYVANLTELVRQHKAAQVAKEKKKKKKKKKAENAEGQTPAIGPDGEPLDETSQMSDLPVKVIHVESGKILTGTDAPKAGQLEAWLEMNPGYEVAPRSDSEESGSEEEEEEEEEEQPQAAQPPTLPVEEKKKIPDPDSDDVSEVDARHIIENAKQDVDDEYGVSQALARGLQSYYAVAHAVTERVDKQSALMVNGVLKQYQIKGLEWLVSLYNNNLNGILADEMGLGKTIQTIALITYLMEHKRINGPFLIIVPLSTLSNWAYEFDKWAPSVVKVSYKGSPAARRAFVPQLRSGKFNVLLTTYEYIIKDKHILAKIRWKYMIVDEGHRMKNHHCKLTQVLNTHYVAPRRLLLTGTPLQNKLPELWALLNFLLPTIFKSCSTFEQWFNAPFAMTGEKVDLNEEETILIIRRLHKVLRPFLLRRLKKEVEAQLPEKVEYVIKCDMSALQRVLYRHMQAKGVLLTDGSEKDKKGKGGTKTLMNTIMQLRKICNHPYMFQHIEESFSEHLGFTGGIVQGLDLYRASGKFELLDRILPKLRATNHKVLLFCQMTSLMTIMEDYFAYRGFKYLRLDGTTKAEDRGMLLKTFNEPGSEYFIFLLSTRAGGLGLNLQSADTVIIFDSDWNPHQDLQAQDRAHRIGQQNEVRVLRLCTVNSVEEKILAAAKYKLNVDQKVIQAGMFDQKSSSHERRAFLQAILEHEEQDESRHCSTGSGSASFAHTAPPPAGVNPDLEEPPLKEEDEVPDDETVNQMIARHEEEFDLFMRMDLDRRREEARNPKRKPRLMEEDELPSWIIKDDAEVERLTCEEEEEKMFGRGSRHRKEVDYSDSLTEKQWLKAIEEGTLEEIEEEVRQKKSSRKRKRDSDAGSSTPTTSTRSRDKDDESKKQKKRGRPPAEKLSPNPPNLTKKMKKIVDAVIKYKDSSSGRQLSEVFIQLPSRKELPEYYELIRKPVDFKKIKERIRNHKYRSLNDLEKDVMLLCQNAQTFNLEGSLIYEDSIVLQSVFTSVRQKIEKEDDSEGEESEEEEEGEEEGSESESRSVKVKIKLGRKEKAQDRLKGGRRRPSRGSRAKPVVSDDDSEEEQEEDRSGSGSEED
T1 sequence (P51531 whole entry): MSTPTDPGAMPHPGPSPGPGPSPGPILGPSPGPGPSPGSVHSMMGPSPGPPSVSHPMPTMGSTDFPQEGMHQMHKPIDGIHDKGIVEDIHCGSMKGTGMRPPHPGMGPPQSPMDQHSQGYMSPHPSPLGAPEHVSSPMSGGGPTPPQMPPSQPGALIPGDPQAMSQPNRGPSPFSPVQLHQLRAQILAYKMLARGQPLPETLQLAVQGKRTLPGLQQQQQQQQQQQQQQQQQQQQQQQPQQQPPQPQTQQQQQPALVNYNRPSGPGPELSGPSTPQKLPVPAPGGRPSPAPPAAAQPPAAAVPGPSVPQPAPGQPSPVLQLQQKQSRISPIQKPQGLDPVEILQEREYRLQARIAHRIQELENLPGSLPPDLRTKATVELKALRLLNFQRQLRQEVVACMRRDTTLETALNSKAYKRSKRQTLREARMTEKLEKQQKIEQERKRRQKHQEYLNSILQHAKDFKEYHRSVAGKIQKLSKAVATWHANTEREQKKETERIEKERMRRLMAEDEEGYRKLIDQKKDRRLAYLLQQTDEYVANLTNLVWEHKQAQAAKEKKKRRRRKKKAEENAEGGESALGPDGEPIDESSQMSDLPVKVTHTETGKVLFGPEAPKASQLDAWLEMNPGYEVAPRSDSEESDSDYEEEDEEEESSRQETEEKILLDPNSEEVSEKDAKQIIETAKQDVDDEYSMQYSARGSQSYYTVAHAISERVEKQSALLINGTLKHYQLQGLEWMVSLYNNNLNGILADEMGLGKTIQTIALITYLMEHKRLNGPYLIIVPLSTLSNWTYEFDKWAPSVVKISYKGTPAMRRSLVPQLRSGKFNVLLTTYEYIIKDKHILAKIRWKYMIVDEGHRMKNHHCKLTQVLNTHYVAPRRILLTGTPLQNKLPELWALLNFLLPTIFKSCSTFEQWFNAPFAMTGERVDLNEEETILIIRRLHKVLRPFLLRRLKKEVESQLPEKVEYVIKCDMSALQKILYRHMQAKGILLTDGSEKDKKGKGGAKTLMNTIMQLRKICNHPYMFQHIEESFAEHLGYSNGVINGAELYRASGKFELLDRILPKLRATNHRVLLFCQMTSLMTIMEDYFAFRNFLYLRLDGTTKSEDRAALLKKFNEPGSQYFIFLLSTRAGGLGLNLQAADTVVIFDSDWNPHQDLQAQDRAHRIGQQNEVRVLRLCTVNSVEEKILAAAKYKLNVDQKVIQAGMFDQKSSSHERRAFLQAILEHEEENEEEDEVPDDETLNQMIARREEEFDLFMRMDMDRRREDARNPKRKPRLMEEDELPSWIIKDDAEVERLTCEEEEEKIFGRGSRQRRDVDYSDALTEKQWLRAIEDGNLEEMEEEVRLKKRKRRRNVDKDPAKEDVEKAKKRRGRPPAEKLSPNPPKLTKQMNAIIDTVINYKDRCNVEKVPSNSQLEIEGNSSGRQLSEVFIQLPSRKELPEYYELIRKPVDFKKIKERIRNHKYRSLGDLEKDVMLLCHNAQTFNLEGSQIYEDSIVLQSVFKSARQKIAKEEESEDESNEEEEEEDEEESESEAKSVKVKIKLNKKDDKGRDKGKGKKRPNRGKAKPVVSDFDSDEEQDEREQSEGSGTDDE

Row | Compound | BRM HiBit Degradation Maximum (%) (HiBiT-BRM) | DC50 (HiBiT-BRM) | DC50 (HiBit-BRG1) | Dmax (HiBit-BRG1)
1 | Cc1ncsc1-c1ccc([C@H](C)NC(=O)[C@@H]2C[C@@H](O)CN2C(=O)[C@@H](NC(=O)CCCCCCCCCCCCCCCC(=O)NCc2ccc(CCOc3cc(-c4ccccc4O)nnc3N)cc2)C(C)(C)C)cc1 [Compound 172, N1-(4-(2-((3-amino-6-(2-hydroxyphenyl)pyridazin-4-yl)oxy)ethyl)benzyl)-N17-((S)-1-((2S,4R)-4-hydroxy-2-(((S)-1-(4-(4-methylthiazoi-5-yl)phenyl)ethyl)carbamoyl)pyrrolidin-1-yl)-3,3-dimethyl-1-oxobutan-2-yl)heptadecanediamide] | A (“A” indicates maximum degradation ≥75%) | > 10 nM | > 100 nM | > 50%
2 | Cc1ncsc1-c1ccc(CNC(=O)[C@@H]2C[C@@H](O)CN2C(=O)[C@@H](NC(=O)CCCCCCCCCCCCCCCC(=O)NCc2ccc(CCOc3cc(-c4ccccc4O)nnc3N)cc2)C(C)C)cc1 [Compound 173, N1-(4-(2-((3-amino-6-(2-hydroxyphenyl)pyridazin-4-yl)oxy)ethyl)benzyl)-N17-((S)-1-((2S,4R)-4-hydroxy-2-((4-(4-methylthiazol-5-yl)benzyl)carbamoyl)pyrrolidin-1-yl)-3-methyl-1-oxobutan-2-yl)heptadecanediamide] | B (“B” indicates maximum degradation ≥50%) | > 100 nM | > 1000 nM | < 50%
3 | Cc1ncsc1-c1ccc([C@H](C)NC(=O)[C@@H]2C[C@@H](O)CN2C(=O)[C@@H](c2cc(OCCN3CCN(CC(=O)NCc4ccc(CCOc5cc(-c6ccccc6O)nnc5N)cc4)CC3)no2)C(C)C)cc1 [Compound 174, (2S,4R)-1-((R)-2-(3-(2-(4-(2-((4-(2-((3-amino-6-(2-hydroxyphenyl)pyridazin-4-yl)oxy)ethyl)benzyl)amino)-2-oxoethyl)piperazin-1-yl)ethoxy)isoxazol-5-yl)-3-methylbutanoyl)-4-hydroxy-N-((S)-1-(4-(4-methylthiazol-5-yl)phenyl)ethyl)pyrrolidine-2-carboxamide] | A (“A” indicates maximum degradation ≥75%) | > 10 nM | > 100 nM | > 75%
4 | Cc1ncsc1-c1ccc([C@H](C)NC(=O)[C@@H]2C[C@@H](O)CN2C(=O)[C@@H](c2cc(OCCN3CCN(CCC(=O)NCc4ccc(CCOc5cc(-c6ccccc6O)nnc5N)cc4)CC3)no2)C(C)C)cc1 [Compound 175, (2S,4R)-1-[(2R)-2-[3-(2-[4-[2-([[4-(2-[[3-amino-6-(2-hydroxyphenyl)pyridazin-4-yl]oxy]ethyl)phenyl]methyl]carbamoyl)ethyl]piperazin-1-yl]ethoxy)-1,2-oxazol-5-yl]-3-methylbutanoyl]-4-hydroxy-N-[(1S)-1-[4-(4-methyl-1,3-thiazol-5-yl)phenyl]ethyl]pyrrolidine-2-carboxamide] | A (“A” indicates maximum degradation ≥75%) | > 10 nM | > 100 nM | > 50%
5 | Cc1ncsc1-c1ccc([C@H](C)NC(=O)[C@@H]2C[C@@H](O)CN2C(=O)[C@@H](c2cc(OCCN3CCC(C(=O)NCc4ccc(CCOc5cc(-c6ccccc6O)nnc5N)cc4)CC3)no2)C(C)C)cc1 [Compound 176, N-(4-(2-((3-amino-6-(2-hydroxyphenyl)pyridazin-4-yl)oxy)ethyl)benzyl)-1-(2-((5-((R)-1-((2S,4R)-4-hydroxy-2-(((S)-1-(4-(4-methylthiazol-5-yl)phenyl)ethyl)carbamoyl)pyrrolidin-1-yl)-3-methyl-1-oxobutan-2-yl)isoxazol-3-yl)oxy)ethyl)piperidine-4-carboxamide] | A (“A” indicates maximum degradation ≥75%) | > 10 nM | > 100 nM | > 75%
6 | Cc1ncsc1-c1ccc([C@H](C)NC(=O)[C@@H]2C[C@@H](O)CN2C(=O)[C@@H](c2cc(OCCN3CCC(CC(=O)NCc4ccc(CCOc5cc(-c6ccccc6O)nnc5N)cc4)CC3)no2)C(C)C)cc1 [Compound 177, (2S,4R)-1-((R)-2-(3-(2-(4-(2-((4-(2-((3-amino-6-(2-hydroxyphenyl)pyridazin-4-yl)oxy)ethyl)benzyl)amino)-2-oxoethyl)piperidin-1-yl)ethoxy)isoxazol-5-yl)-3-methylbutanoyl)-4-hydroxy-N-((S)-1-(4-(4-methylthiazol-5-yl)phenyl)ethyl)pyrrolidine-2-carboxamide] | A (“A” indicates maximum degradation ≥75%) | > 100 nM | > 1000 nM | > 75%
7 | Cc1ncsc1-c1ccc([C@H](C)NC(=O)[C@@H]2C[C@@H](O)CN2C(=O)[C@@H](c2cc(OCCN3CC(C(=O)NCc4ccc(CCOc5cc(-c6ccccc6O)nnc5N)cc4)C3)no2)C(C)C)cc1 [Compound 178, (2S,4R)-1-((R)-2-(3-(2-(3-((4-(2-((3-amino-6-(2-hydroxyphenyl)pyridazin-4-yl)oxy)ethyl)benzyl)carbamoyl)azetidin-1-yl)ethoxy)isoxazol-5-yl)-3-methylbutanoyl)-4-hydroxy-N-((S)-1-(4-(4-methylthiazol-5-yl)phenyl)ethyl)pyrrolidine-2-carboxamide] | A (“A” indicates maximum degradation ≥75%) | > 100 nM | > 100 nM | > 75%
8 | Cc1ncsc1-c1ccc(CNC(=O)[C@@H]2C[C@@H](O)CN2C(=O)[C@@H](NC(=O)CCN2CCN(CC(=O)NCc3ccc(CCOc4cc(-c5ccccc5O)nnc4N)cc3)CC2)C(C)(C)C)cc1 [Compound 179, (2S,4R)-1-[(2S)-2-(3-[4-[([[4-(2-[[3-amino-6-(2-hydroxyphenyl)pyridazin-4-yl]oxy]ethyl)phenyl]methyl]carbamoyl)methyl]piperazin-1-yl]propanamido)-3,3-dimethylbutanoyl]-4-hydroxy-N-[[4-(4-methyl-1,3-thiazol-5-yl)phenyl]methyl]pyrrolidine-2-carboxamide] | C (“C” indicates maximum degradation <50%) | > 1000 nM | > 1000 nM | < 50%
9 | Cc1ncsc1-c1ccc(CNC(=O)[C@@H]2C[C@@H](O)CN2C(=O)[C@@H](NC(=O)CCN2CCC(C(=O)NCc3ccc(CCOc4cc(-c5ccccc5O)nnc4N)cc3)CC2)C(C)(C)C)cc1 [Compound 180, N-(4-(2-((3-amino-6-(2-hydroxyphenyl)pyridazin-4-yl)oxy)ethyl)benzyl)-1-(3-(((S)-1-((2S,4R)-4-hydroxy-2-((4-(4-methylthiazol-5-yl)benzyl)carbamoyl)pyrrolidin-1-yl)-3,3-dimethyl-1-oxobutan-2-yl)amino)-3-oxopropyl)piperidine-4-carboxamide] | B (“B” indicates maximum degradation ≥50%) | > 1000 nM | > 1000 nM | < 50%
10 | Cc1ncsc1-c1ccc(CNC(=O)[C@@H]2C[C@@H](O)CN2C(=O)[C@@H](NC(=O)CCN2CCC(CC(=O)NCc3ccc(CCOc4cc(-c5ccccc5O)nnc4N)cc3)CC2)C(C)(C)C)cc1 [Compound 181, (2S,4R)-1-((S)-2-(3-(4-(2-((4-(2-((3-amino-6-(2-hydroxyphenyl)pyridazin-4-yl)oxy)ethyl)benzyl)amino)-2-oxoethyl)piperidin-1-yl)propanamido)-3,3-dimethylbutanoyl)-4-hydroxy-N-(4-(4-methylthiazol-5-yl)benzyl)pyrrolidine-2-carboxamide] | C (“C” indicates maximum degradation <50%) | > 1000 nM | > 1000 nM | < 50%
11 | Cc1ncsc1-c1ccc(CNC(=O)[C@@H]2C[C@@H](O)CN2C(=O)[C@@H](NC(=O)CCN2CC(C(=O)NCc3ccc(CCOc4cc(-c5ccccc5O)nnc4N)cc3)C2)C(C)(C)C)cc1 [Compound 182, (2S,4R)-1-[(2S)-2-[3-[3-([[4-(2-[[3-amino-6-(2-hydroxyphenyl)pyridazin-4-yl]oxy]ethyl)phenyl]methyl]carbamoyl)azetidin-1-yl]propanamido]-3,3-dimethylbutanoyl]-4-hydroxy-N-[[4-(4-methyl-1,3-thiazol-5-yl)phenyl]methyl]pyrrolidine-2-carboxamide] | C (“C” indicates maximum degradation <50%) | > 1000 nM | > 1000 nM | < 50%
12 | Cc1ncsc1-c1ccc(CNC(=O)[C@@H]2C[C@@H](O)CN2C(=O)[C@@H](NC(=O)CCN2CC(CC(=O)NCc3ccc(CCOc4cc(-c5ccccc5O)nnc4N)cc3)C2)C(C)(C)C)cc1 [Compound 183, (2S,4R)-1-[(2S)-2-(3-[3-[([[4-(2-[[3-amino-6-(2-hydroxyphenyl)pyridazin-4-yl]oxy]ethyl)phenyl]methyl]carbamoyl)methyl]azetidin-1-yl]propanamido)-3,3-dimethylbutanoyl]-4-hydroxy-N-[[4-(4-methyl-1,3-thiazol-5-yl)phenyl]methyl]pyrrolidine-2-carboxamide] | C (“C” indicates maximum degradation <50%) | > 1000 nM | > 1000 nM | < 50%
13 | Cc1ncsc1-c1ccc(CNC(=O)[C@@H]2C[C@@H](O)CN2C(=O)[C@@H](NC(=O)CCN2C[C@@H]3[C@H](C2)[C@H]3C(=O)NCc2ccc(CCOc3cc(-c4ccccc4O)nnc3N)cc2)C(C)(C)C)cc1 [Compound 184, (1R,5S,6S)-N-[[4-(2-[[3-amino-6-(2-hydroxyphenyl)pyridazin-4-yl]oxy]ethyl)phenyl]methyl]-3-(2-[[(2S)-1-[(2S,4R)-4-hydroxy-2-([[4-(4-methyl-1,3-thiazol-5-yl)phenyl]methyl]carbamoyl)pyrrolidin-1-yl]-3,3-dimethyl-1-oxobutan-2-yl]carbamoyl]ethyl)-3-azabicyclo[3.1.0]hexane-6-carboxamide] | B (“B” indicates maximum degradation ≥50%) | > 1000 nM | > 1000 nM | < 50%
